Assay results from patent US20040037904A1, “Antibacterial composition comprising as an active ingredient saponificated vegetable oil” (priority 2000, published 2004).
Entries after “also recorded” stand apart in the source; their conditions may differ.

Legend:
[1] = test system: Musca domestica (larvae); experiment: Larvae in culture medium with the composition, surviving larvae counted; type: in vivo; settings: six days old larvae, 24° C., observed up to 36 hours
Method: (§1) As RB 86™ needs an emulsifier for dissolving this emulsifier was also tested. All tests were reiterated, making a total of five times for each. Throughout the study, houseflies (Musca domestica) of a laboratory strain (772a) obtained from Statens Skadedyrslaboratorium, Lyngby, Denmark, was used. Standard medium for culturing larvae consisted of baker's yeast, mill: powder, water and wheat bran.
Six days old larvae were placed in 1.5 litre plastic vessels (Cerbo™) containing 40 g culture medium and the respective composition a)-f). The vessels were placed in a climate room (24° C., RH %=75%±10%). Observations were performed whereby the number surviving larvae were registrated after 2, 5, 12, 24 and 36 hours.

[2] = test system: M. domestica spiracle opening bristles; experiment: Effects on flies studied in scanning electron microscope; type: in vivo, Musca domestica; settings: adult flies; Bionim 0.4%, potassium oleate 5%, Blidol 0.02%; SEM
From the text: A scanning electron microscope (SEM) was used to microscope adult flies treated with:
whereby morphological changes could be detected. These flies were photographed and compared with normal flies.
Morphological changes could be detected on the spiracle opening on the middle part of the body. Bristles (see FIG. 12) surround this breathing hole. […] Apparently these last mentioned effects are present when using the other compositions.

[3] = test system: fleas; experiment: Flea control on dogs; type: in vivo
Method: 15 dogs infested with fleas were treated with oleate. The oleate was sprayed from pump bottles. At the first treatment the dogs were sprayed with oleate in the groins, armpits and head/neck. At the second treatment, twenty-four hours later, the dogs were sprayed only in the armpits and behind the ears.

[4] = test system: Musca domestica (adult); experiment: Adult flies in spray-treated Petri dishes, surviving flies counted; type: in vivo; settings: 10 adult flies per pre-treated dish; RB 86 6%, Bionim 0.4%, potassium oleate 5% concentration
Method: as §1
Test vessels were Petri dishes made of glass with a diameter of 9 cm. With the help of a spraying bottle the bottoms of the vessels were treated with each of the compositions a)-f). After transferring 10 adult flies to each of the pre-treated dishes, the dishes were covered with plastic film and the registration started. Observations were performed by counting the surviving flies at the start, after 5 minutes and subsequently every 10th minute up to a total of 60 minutes. Two further observations were made after 1.5 and 2 hours from the start, respectively.

With `CCCCCCCC/C=C\CCCCCCCC(=O)[O-].[K+]` [Potassium oleate] the “controlling effect on larvae” value [1] was “An effect could however be detected”, the “deformation of bristles around the spiracle opening” value [2] was “The bristles are minimally affected; also recorded: only showed minimal changes” and the “fleas found on dogs” value ([3]; after the first spray treatment, 15 infested dogs) was “only one or two fleas were found on some dogs”. The living fleas found ([3]; forty-eight hours later, after the second treatment) was “no living flea was found”, the “living fleas found at another check” value ([3]; four days later) was “the result was the same” and the “time within which all flies were killed” value [4] was at most 5 min.
